Consider five compounds from ChEMBL document CHEMBL1201862, “PubChem BioAssay data set” (2004).

Assay [1] has as its system Vero. Briefly: West Nile virus antiviral activity, cell-based, CPE readout (AID 1621). It is filed as functional. As to conditions: Chlorocebus sabaeus.
The nature of assay [2]: A Cell Based Assay for the Identification of Probe candidate Compounds with Anti- Venezuelan Equine Encephalitis virus. [Related pubchem assays: 2409, 2419, 1621, 2238, 2405, 2024, 2065, 2402, 2414, 1635, 1650, 2244 ]. It is filed as functional.
Assay [3] deals with Vero. As to the kind of experiment: Vero E6 cell cytotoxicity, SAR follow-up, cytotoxicity control for West Nile virus antiviral project, synthesized analogs (AID 2244). It is filed as functional. As to conditions: Chlorocebus sabaeus.
Assay [4] relates to Vero. Briefly: host cell cytotoxicity of antiviral hits, dose response, cytotoxicity control for West Nile virus antiviral project, secondary assay (AID 1650). It is filed as functional. As to conditions: Chlorocebus sabaeus.
Assay [5] has as its system Vero. As to the kind of experiment: cytotoxicity of synthesized analogs in Vero cells, SAR follow-up, cytotoxicity control for West Nile virus antiviral project, cell-based, set II (AID 2402). As to conditions: Chlorocebus sabaeus. It is filed as functional.
Assay [6] concerns Vero. As to the kind of experiment: West Nile virus CPE inhibition, SAR follow-up, cell-based, synthesized analogs (AID 2238). In kind it is functional. As to conditions: Chlorocebus sabaeus.
Assay [7] relates to Vero. Briefly: cytotoxicity of synthesized analogs in Vero 76, SAR follow-up, cytotoxicity control for West Nile virus antiviral project, Vero 76 cells (AID 2414). It is filed as functional. Conditions: Chlorocebus sabaeus.
Assay [8] deals with G-protein coupled receptor 55 (Homo sapiens, UniProt Q9Y2T6). Briefly: GPR55 agonists via beta-arrestin recruitment, primary screen, imaging, U2OS cells, beta-arrestin-GFP redistribution (AID 1961). In kind it is functional. In general terms: Arrestin recruitment assays detect the binding of arrestin to an activated receptor.
Chain of G-protein coupled receptor 55 (Q9Y2T6 whole entry): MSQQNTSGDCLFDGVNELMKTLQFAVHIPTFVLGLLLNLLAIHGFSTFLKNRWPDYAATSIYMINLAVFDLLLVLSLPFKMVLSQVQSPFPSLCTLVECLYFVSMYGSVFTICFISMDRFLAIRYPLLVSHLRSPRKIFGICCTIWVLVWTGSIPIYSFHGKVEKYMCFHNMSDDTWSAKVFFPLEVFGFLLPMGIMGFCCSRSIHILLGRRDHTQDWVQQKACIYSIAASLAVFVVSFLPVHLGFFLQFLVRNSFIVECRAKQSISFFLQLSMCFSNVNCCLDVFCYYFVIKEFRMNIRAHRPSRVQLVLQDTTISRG
For assay [9], the target named is Alkaline phosphatase, placental type (Homo sapiens, UniProt P05187). As to the kind of experiment: PLAP enzyme inhibitors, confirmation, biochemical, luminescence (AID 1512). In kind it is functional.
Chain of Alkaline phosphatase, placental type (P05187 whole entry): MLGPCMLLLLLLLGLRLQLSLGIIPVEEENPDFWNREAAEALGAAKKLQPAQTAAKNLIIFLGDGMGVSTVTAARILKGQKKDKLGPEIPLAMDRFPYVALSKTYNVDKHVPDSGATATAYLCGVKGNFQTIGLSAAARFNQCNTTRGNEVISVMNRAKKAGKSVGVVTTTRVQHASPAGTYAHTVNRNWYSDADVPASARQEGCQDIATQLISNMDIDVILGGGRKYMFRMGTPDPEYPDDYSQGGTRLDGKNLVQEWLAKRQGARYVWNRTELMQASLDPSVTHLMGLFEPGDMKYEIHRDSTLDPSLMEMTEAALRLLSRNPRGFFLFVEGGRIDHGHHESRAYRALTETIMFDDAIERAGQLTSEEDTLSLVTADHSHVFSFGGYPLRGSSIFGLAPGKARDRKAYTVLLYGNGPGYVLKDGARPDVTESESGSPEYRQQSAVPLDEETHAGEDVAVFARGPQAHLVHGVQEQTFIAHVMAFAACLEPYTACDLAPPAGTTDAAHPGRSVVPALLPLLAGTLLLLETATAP
Assay [10] addresses T1, Tyrosine-protein phosphatase non-receptor type 7 (Homo sapiens, UniProt P35236).
T1 sequence (P35236 whole entry): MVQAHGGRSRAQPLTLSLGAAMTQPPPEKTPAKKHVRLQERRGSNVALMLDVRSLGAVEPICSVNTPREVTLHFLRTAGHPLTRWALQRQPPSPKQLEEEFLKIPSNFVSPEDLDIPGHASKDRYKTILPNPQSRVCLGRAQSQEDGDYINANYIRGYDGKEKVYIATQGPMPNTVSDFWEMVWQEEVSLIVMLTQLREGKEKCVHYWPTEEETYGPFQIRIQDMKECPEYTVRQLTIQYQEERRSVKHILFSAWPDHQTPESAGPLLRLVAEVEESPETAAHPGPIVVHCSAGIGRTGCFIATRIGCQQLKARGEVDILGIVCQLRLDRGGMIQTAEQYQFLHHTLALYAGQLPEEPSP
Briefly: SAR analysis of chemical inhibitors of HePTP using a Fluorescent assay - Set 2. [Related pubchem assays (depositor defined):AID1059, AID1077, AID1661, AID2085, AID521]. In kind it is functional.

Assay [11] addresses Dual specificity protein phosphatase 3 (Homo sapiens, UniProt P51452). As to the kind of experiment: SAR VHR1 Fluorescent Assay for In Vitro dose response studies Set 2. [Related pubchem assays (depositor defined):AID1654, AID1661, AID1878]. In kind it is functional.
Assay [12] relates to Vero. As to the kind of experiment: cells. Conditions: Chlorocebus sabaeus. In kind it is functional, cell-based.
A short description of assay [13]: HeLa cell cytotoxicity, dose response, cytotoxicity control for MgcRacGAP inhibitor project (AID 624300). It is filed as functional.
The target in assay [14] is 1-acylglycerol-3-phosphate O-acyltransferase ABHD5/Perilipin-5 (Homo sapiens, UniProt Q00G26+Q8WTS1). As to the kind of experiment: Luminescence-based biochemical high throughput dose response assay for inhibitors of the interaction of the lipase co-activator protein, abhydrolase domain containing 5 (ABHD5) with perilipin-5 (MLDP; PLIN5) (2K validation set). [Related pubchem assays (depositor defined):AID493035, AID493241].
Chain of 1-acylglycerol-3-phosphate O-acyltransferase ABHD5/Perilipin-5 (Q00G26 whole entry, the tested form may be a part): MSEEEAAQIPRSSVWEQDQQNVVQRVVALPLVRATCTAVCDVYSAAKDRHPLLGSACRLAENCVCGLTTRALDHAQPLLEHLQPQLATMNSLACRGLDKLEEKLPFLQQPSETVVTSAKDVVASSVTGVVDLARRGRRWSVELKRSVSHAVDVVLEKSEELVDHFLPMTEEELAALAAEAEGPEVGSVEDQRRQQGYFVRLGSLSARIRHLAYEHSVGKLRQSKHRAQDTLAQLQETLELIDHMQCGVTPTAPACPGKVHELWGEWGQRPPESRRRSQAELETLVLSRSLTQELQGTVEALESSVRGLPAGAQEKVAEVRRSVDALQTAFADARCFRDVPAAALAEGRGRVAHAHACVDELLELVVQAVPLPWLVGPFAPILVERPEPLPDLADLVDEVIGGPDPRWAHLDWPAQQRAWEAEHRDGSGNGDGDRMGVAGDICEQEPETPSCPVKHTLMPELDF
Chain of 1-acylglycerol-3-phosphate O-acyltransferase ABHD5/Perilipin-5 (Q8WTS1 whole entry, the tested form may be a part): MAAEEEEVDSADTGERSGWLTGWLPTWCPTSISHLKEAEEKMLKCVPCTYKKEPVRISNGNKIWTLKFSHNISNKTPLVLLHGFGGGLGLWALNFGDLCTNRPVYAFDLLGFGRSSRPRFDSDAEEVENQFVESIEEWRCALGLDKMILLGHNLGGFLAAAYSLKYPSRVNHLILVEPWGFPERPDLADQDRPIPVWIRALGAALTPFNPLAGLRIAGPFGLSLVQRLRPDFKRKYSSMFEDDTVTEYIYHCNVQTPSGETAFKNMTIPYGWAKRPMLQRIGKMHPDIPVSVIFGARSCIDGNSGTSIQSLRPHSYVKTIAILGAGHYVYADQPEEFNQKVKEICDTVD

Assay [15] relates to Vero. Briefly: cells. It is filed as functional. As to conditions: Chlorocebus sabaeus.
For assay [16], the target named is Perilipin-1/ABHD5 (Homo sapiens, UniProt O60240+Q8WTS1). Briefly: Luminescence-based biochemical high throughput dose response assay for inhibitors of the interaction of the lipase co-activator protein, abhydrolase domain containing 5 (ABHD5) with perilipin-1 (PLIN1) (2K validation set). [Related pubchem assays (depositor defined):AID493027, AID493057].
Chain of Perilipin-1/ABHD5 (Q8WTS1 whole entry, the tested form may be a part): as above
Chain of Perilipin-1/ABHD5 (O60240 whole entry, the tested form may be a part): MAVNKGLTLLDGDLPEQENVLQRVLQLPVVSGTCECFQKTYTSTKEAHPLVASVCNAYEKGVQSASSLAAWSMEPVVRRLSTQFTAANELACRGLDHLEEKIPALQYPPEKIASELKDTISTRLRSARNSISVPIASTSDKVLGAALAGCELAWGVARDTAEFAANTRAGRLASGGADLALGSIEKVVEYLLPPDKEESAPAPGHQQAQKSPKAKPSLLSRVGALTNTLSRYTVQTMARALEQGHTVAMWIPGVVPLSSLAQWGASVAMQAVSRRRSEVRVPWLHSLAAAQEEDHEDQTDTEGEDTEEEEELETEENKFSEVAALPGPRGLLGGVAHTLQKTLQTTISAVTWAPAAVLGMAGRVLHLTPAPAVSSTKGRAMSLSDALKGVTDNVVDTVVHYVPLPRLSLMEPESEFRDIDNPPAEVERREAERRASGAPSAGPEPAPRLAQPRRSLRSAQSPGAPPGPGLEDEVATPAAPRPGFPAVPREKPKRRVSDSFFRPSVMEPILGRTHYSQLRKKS
The target in assay [17] is T2, Kappa-type opioid receptor (Homo sapiens, UniProt P41145). Briefly: SAR analysis of Antagonists of the Kappa Opioid Receptor (KOR) using an Image-Based Assay - Set 3. [Related pubchem assays (depositor defined):AID1777, AID1785]. It is filed as functional.
T2 sequence (P41145 whole entry): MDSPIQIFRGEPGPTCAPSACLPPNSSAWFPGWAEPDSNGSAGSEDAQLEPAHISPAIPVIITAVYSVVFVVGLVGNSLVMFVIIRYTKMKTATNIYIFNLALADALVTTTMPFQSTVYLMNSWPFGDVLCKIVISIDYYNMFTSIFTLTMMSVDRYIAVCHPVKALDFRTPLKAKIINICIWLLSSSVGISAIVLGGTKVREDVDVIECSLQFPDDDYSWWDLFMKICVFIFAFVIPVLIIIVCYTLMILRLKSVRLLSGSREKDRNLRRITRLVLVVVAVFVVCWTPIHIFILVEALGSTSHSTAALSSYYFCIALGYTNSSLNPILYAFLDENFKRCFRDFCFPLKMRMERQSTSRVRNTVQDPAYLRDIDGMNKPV
Assay [18] has as its target Delta-type opioid receptor (Homo sapiens, UniProt P41143). Briefly: SAR Analysis of Antagonists of the DOR Receptor using an Image-Based Assay - Set 3. [Related pubchem assays (depositor defined):AID1777, AID1785]. It is filed as functional.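 Further: U2OS cells expressing DOR1 and beta-arrestin GFP stimulated with 100 nM SNC80; imaging of GFP-tagged beta-arrestin moving into spots after receptor activation.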
Assay [19] addresses Mu-type opioid receptor (Homo sapiens, UniProt P35372). Briefly: SAR Analysis of Antagonists of the MOR Receptor using an Image-Based Assay - Set 3. [Related pubchem assays (depositor defined):AID1777, AID1785, AID1786, AID1966, AID2133, AID2136, AID2284, AID2285, AID2420]. It is filed as functional.
The target of assay [20] is T2, Kappa-type opioid receptor. As to the kind of experiment: SAR analysis of small molecule antagonists of the kappa opioid receptor via a luminescent beta-arrestin assay - Set 3. [Related pubchem assays (depositor defined):AID1777, AID1778, AID1785, AID1786, AID1966, AID2133, AID2136, AID2285, AID2495]. In kind it is functional.

Active and inactive are the calls of the source. Some results are limits rather than exact numbers.

Chain of Delta-type opioid receptor (P41143 whole entry): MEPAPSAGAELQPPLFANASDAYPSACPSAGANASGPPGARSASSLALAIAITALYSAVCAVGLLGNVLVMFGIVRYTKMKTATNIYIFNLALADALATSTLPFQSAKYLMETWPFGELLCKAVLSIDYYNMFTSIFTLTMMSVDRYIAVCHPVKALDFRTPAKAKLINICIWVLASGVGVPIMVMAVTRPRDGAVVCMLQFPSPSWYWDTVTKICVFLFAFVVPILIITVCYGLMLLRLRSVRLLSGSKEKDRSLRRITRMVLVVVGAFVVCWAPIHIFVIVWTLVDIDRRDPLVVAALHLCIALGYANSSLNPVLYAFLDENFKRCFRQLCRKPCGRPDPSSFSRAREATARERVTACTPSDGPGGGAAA
Chain of Dual specificity protein phosphatase 3 (P51452 whole entry): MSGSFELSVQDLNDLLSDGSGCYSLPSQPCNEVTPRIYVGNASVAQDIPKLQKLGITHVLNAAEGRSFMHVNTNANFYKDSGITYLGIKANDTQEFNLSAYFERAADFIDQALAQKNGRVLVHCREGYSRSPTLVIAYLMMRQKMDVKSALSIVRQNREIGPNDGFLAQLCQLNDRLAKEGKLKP
Chain of Mu-type opioid receptor (P35372 whole entry): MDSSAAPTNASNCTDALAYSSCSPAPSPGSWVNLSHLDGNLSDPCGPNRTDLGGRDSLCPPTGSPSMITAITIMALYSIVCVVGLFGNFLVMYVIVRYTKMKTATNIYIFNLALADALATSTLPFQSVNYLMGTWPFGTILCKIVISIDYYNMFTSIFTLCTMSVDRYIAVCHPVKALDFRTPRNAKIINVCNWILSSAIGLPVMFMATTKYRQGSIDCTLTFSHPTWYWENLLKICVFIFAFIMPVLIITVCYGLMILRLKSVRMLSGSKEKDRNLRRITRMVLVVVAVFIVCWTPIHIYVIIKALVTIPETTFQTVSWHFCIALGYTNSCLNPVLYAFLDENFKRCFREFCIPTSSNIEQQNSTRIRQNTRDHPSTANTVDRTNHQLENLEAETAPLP

For `CC1CCN(CCCNC(=O)c2cc3c(s2)-c2ccccc2OC3)CC1`, the IC50 in assay [1] was 25.1 µM (active); in [2], 18.2 µM (active); in [6], > 40 µM (active). The CC50 in assay [3] was 26.2 µM (active); in assay [4] it was > 100 µM (active); in [5] it was 19.5 µM (active); in [7], > 66.6 µM (active).

Regarding `CC(C)C[C@@H](CSc1ccc(Br)cc1)N1CCN(CCc2ccccc2)CCC1=O`, the EC50 in assay [8] was 7.59 µM (active).

For the compound `Cc1ccc(C)c(NC(S)=NNC(=O)c2ccc(Br)o2)c1`, the IC50 in [9], in assay [10] and in [11] was > 100 µM (inactive) each time.

`COC(=O)C1=C(C)N(Cc2ccco2)C(=O)/C1=C\c1ccc([N+](=O)[O-])cc1`: the IC50 is > 25 µM (active) in assay [12], 2.27 µM (active) in assay [14] and 2.07 µM (active) in assay [16]. Further, the CC50 in [13] is 62.9 µM (active); in [15], 17.6 µM (active).

Regarding `O=C(Cn1c(=O)c2cccn2c2ccccc21)NCCCN1CCN(Cc2ccccc2)CC1`, the IC50 in [17] is > 32 µM (inactive); in assay [18] it was > 32 µM (inactive); in assay [19], > 32 µM (inactive); in assay [20], > 20 µM (inactive).

What is called IC50 is the midpoint of a concentration-inhibition curve. What is called CC50 is the concentration giving 50% cytotoxicity. The term EC50 denotes the concentration at which the effect is half-maximal.
